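All cell lines were grown in 96-well plates and treated with compound for 48 hours. At the GI50, growth is halved. At the TGI there is no net growth.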
Tests used:
Assay in all cases: NCI-60 cell line screen, 48 h
TK-10 renal = test system: TK-10 renal
HOP-62 NSCLC = test system: HOP-62 NSCLC
MALME-3M melanoma = test system: MALME-3M melanoma
SR leukemia = test system: SR leukemia
SNB-19 CNS = test system: SNB-19 CNS
SF-295 CNS = test system: SF-295 CNS
LOX IMVI melanoma = test system: LOX IMVI melanoma
RPMI-8226 leukemia = test system: RPMI-8226 leukemia
PC-3 prostate = test system: PC-3 prostate
MDA-MB-231 breast = test system: MDA-MB-231 breast

Row | SMILES | TGI (TK-10 renal) [µM] | TGI (HOP-62 NSCLC) [µM] | TGI (MALME-3M melanoma) [µM] | TGI (SR leukemia) [µM] | TGI (SNB-19 CNS) [µM] | TGI (SF-295 CNS) [µM] | TGI (LOX IMVI melanoma) [µM] | TGI (RPMI-8226 leukemia) [µM] | GI50 (TK-10 renal) [µM] | TGI (PC-3 prostate) [µM] | TGI (MDA-MB-231 breast) [µM] | GI50 (PC-3 prostate) [µM] | GI50 (SR leukemia) [µM] | GI50 (MDA-MB-231 breast) [µM] | GI50 (RPMI-8226 leukemia) [µM] | GI50 (SF-295 CNS) [µM] | GI50 (HOP-62 NSCLC) [µM] | GI50 (LOX IMVI melanoma) [µM] | GI50 (SNB-19 CNS) [µM]
1 | Cc1ccc(C)c(N2C(=O)C(=O)C(c3nc4ccccc4o3)C(=O)C2=O)c1 | > 100 | > 100 | > 100 | > 100 | > 100 | > 100 | – | – | – | – | – | – | – | – | – | – | – | – | –
2 | CC1=C(SC#N)S(=O)(=O)N(c2ccccc2)C(C)=C1SC#N | > 100 | – | > 100 | 65.5 | 76.5 | 67.1 | > 100 | > 100 | – | – | – | – | – | – | – | – | – | – | –
3 | O=C(C(=O)n1ncc(Cl)c(Cl)c1=O)n1ncc(Cl)c(Cl)c1=O | 70.1 | > 100 | 48.1 | – | > 100 | > 100 | > 100 | 26.8 | – | – | – | – | – | – | – | – | – | – | –
4 | S=C1Cc2c(-c3ccc(Br)cc3)cc(-c3ccccc3)nc2-c2ccccc2N1 | 3.75 | 3.01 | 7.41 | – | 3.52 | 5.4 | 12.6 | 65.8 | 1.79 | 23.3 | 3.72 | – | – | – | – | – | – | – | –
5 | O=C(NNc1ccc(Cl)cc1)C1CCC(CNS(=O)(=O)c2ccccc2Cl)CC1 (configuration not stated) | 6.68 | – | – | 66.4 | – | 68.5 | – | 21.9 | 0.453 | 34.7 | 29 | 3.69 | 10.2 | 4.63 | 4.91 | 4.58 | – | – | –
6 | COc1ccc2nc(C(=O)c3ccccc3)c(C)cc2c1 | 76.1 | 37.1 | > 39.1 | > 100 | > 100 | 9.23 | > 100 | > 100 | – | – | – | – | – | – | – | – | – | – | –
7 | COc1ccccc1NC(=O)C1=C(C)NC(C)=C(C(=O)Nc2ccccc2OC)C1/C=C/c1ccccc1 | > 100 | > 100 | > 100 | > 100 | > 100 | > 100 | > 100 | > 100 | – | – | – | – | – | – | – | – | – | – | –
8 | CCCCCCCCCCCCC(O)c1ccco1 (configuration not stated) | 40.9 | 36.8 | – | – | 70.7 | 39.3 | 32.2 | 49.2 | 22.8 | 30.7 | 32.7 | 16.9 | – | 17.4 | 21 | 19.7 | 20.6 | 17.9 | 25.9
9 | N#CC(C(=O)CCCC(=O)Nc1ccc(Cl)cc1Cl)c1ccccc1 (configuration not stated) | > 100 | > 100 | > 100 | > 100 | > 100 | > 100 | > 100 | – | – | – | – | – | – | – | – | – | – | – | –
10 | CCOC(=O)c1cc(-c2ccc(-c3cc(C(=O)OCC)c(C#N)c(N)c3C#N)cc2)c(C#N)c(N)c1C#N | > 100 | > 100 | > 100 | > 100 | > 100 | > 100 | > 100 | > 100 | – | – | – | – | – | – | – | – | – | – | –
11 | CCOC(=O)/C(=C/c1cccc(Cl)c1)N(CC)CC | > 100 | 77.8 | > 100 | > 100 | – | > 100 | > 100 | > 100 | – | – | – | – | – | – | – | – | – | – | –
12 | Cc1c(C(=O)O)n(C)c(=O)n(C)c1=O | > 100 | > 100 | > 100 | – | > 100 | > 100 | > 100 | – | – | – | – | – | – | – | – | – | – | – | –

— PubChem BioAssay (NCI)
